# Laboratory results taken from patent US11780845B2 (Relay Therapeutics, Inc., priority 2019, dated 2023).
# System: SNU-16
# Test: Cell SNU-16 assay
# Format: cell-based
# Settings: Homo sapiens, SNU-16, SNU-16 cells
row,IC50,SMILES
1,≤ 100 nM,"C=C(C)C(=O)Nc1ccc(-c2c(C3=CC[C@H](C(=O)N4CCCCCC4)CC3)c3c(N)ncnc3n2C)cc1 (single isomer, unassigned) [Example 977]"
2,1000 to 100000 nM,"C=CC(=O)N1CC[C@@H](c2c(C3=CC[C@H](C(=O)N4CCCC4)CC3)c3c(N)ncnc3n2C)C1 (single isomer, unassigned) [Example 887]"
3,1000 to 100000 nM,C#Cc1cc(C)c(-c2c(C3=CC[C@]4(CC3)Cc3ccc(C)nc3O4)c3c(C)ncnc3n2C)cn1 [Example 1396]
4,≤ 100 nM,C#Cc1ncc(-c2c(-c3ccc(Oc4nccc(C)n4)c(F)c3)c3c(N)ncnc3n2C(C)C)c(C)c1F [Example 1334]
5,1000 to 100000 nM,C=C(C)C(=O)Nc1ccc(-c2c(-c3ccc4[nH]nc(C)c4c3)c3c(N)ncnc3n2C)cc1 [Example 1290]
6,≤ 100 nM,C#Cc1c(F)cc(-c2c(-c3ccc(Oc4nccc(C)n4)cc3)c3c(N)ncnc3n2C)cc1F [Example 1177]
7,250 to 1000 nM,C=C(C)C(=O)Nc1ccc(-c2c(-c3ccc(C(=O)N[C@H]4C[C@H](F)C4)c(OC4CC4)c3)c3c(N)ncnc3n2C)cc1 [Example 978]
8,1000 to 100000 nM,C=C(C)C(=O)Nc1ccc(-c2c(-c3ccc(Oc4nccc(C)n4)cc3)c3c(N)ncnc3n2C)c(Cl)c1F [Example 1089]
9,≤ 100 nM,C=C(C)C(=O)Nc1cc(C)c(-c2c(C3=CC[C@H](C(=O)N4CCCC4)CC3)c3c(N)ncnc3n2C)c(F)c1 [Example 1482]
10,250 to 1000 nM,"C=C(C)C(=O)Nc1ccc(-c2c(C3=CC[C@@H](C(=O)N4CCCCCC4)CC3)c3c(N)ncnc3n2C)cc1 (single isomer, unassigned) [Example 979]"
11,1000 to 100000 nM,C=C(C)C(=O)Nc1ccc(-c2c(-c3ccc(Oc4nccc(C)n4)cc3)c3c(C)ncnc3n2C)c(C)c1 [Example 1125]
12,100 to 250 nM,C=CC(=O)N(C)C1CCC(c2c(-c3ccc(Oc4cccc(C)n4)cc3)c3c(N)ncnc3n2C)C1 (stereo not drawn) [Example 816]

# The remaining lines, values behind:
row,SMILES,IC50
1,C=CC(=O)NC(C)(C)c1ccc(-c2c(-c3ccc(Oc4nccc(C)n4)cc3)c3c(N)ncnc3n2C)cc1 [Example 943],250 to 1000 nM
2,C#Cc1nc2cc(-c3c(-c4ccc(Oc5nccc(C)n5)c(F)c4)c4c(N)ncnc4n3C)ccc2n1C [Example 1359],≤ 100 nM
3,C=C(C)C(=O)Nc1ccc(-c2c(C3=CC[C@@H](C(=O)N4CCCC4)C[C@@H]3C)c3c(N)ncnc3n2C)cc1 [Example 937],1000 to 100000 nM
4,"C#Cc1cc(C)c(-c2c(C3=CC[C@H](C(=O)N4CCC[C@H]4C#N)CC3)c3c(C)ncnc3n2C)c(C)n1 (atropisomer, axis not shown) [Example 1463]",≤ 100 nM
5,C=C(C)C(=O)Nc1ccc(-c2c(-c3ccc(C(=O)NC4CCC4)c(OC)c3)c3c(N)ncnc3n2C)cc1 [Example 911],≤ 100 nM
6,"C=C(C)C(=O)Nc1ccc(-c2c(C3=CC[C@H](C(=O)N4CCc5ccccc54)CC3)c3c(N)ncnc3n2C)cc1 (single isomer, unassigned) [Example 986]",250 to 1000 nM
7,"C=C(C)C(=O)Nc1ccc(-c2c(C3=CC[C@H](C(=O)N4CCCC4)C[C@H]3C)c3c(N)ncnc3n2C)cc1 (single isomer, unassigned) [Example 938]",1000 to 100000 nM
8,COC(=O)/C=C/CNc1ccc(-c2c(-c3ccc(Oc4nccc(C)n4)c(F)c3)c3c(N)ncnc3n2C)cc1 [Example 1265],100 to 250 nM
9,C=C(C)C(=O)Nc1ccc(-c2cn3ncnc(N)c3c2-c2ccc(C(=O)N3CC4CC3C4)cc2)cc1 [Example 840],≤ 100 nM
10,C=C(C)C(=O)Nc1ccc(-c2c(-c3ccc(-c4ccccc4O)nc3)c3c(N)ncnc3n2C)cc1 [Example 1371],250 to 1000 nM
11,C#Cc1ccc(-c2c(-c3ccc(Oc4nccc(C)n4)c(F)c3)c3cncnc3n2C)c(C)n1 [Example 1183],≤ 100 nM
12,C=CC(=O)Nc1ccc(-c2c(-c3c[nH]c4ccccc34)c3c(N)ncnc3n2C)cc1 [Example 1157],250 to 1000 nM
13,"C=CC(=O)N[C@H]1CCc2cc(-c3c(-c4ccc(Oc5nccc(C)n5)cc4)c4c(N)ncnc4n3C)ccc21 (single isomer, unassigned) [Example 929]",100 to 250 nM
14,"Cc1ccnc(Oc2ccc(-c3c(-c4ccc(OC[C@H]5CO5)cc4)n(C)c4ncnc(N)c34)cc2)n1 (single isomer, unassigned) [Example 917]",100 to 250 nM
15,CC1=CCCN(c2ccc(-c3c(-c4ccc(Oc5nccc(C)n5)cc4)c4c(N)ncnc4n3C)cc2)C1=O [Example 1090],≤ 100 nM

# Target: FGFR2 (Homo sapiens (Human), UniProt P21802)
# Test: Biochemical FGFR2 Caliper assay
# Settings: not given
# Sequence of FGFR2 (P21802 22-821): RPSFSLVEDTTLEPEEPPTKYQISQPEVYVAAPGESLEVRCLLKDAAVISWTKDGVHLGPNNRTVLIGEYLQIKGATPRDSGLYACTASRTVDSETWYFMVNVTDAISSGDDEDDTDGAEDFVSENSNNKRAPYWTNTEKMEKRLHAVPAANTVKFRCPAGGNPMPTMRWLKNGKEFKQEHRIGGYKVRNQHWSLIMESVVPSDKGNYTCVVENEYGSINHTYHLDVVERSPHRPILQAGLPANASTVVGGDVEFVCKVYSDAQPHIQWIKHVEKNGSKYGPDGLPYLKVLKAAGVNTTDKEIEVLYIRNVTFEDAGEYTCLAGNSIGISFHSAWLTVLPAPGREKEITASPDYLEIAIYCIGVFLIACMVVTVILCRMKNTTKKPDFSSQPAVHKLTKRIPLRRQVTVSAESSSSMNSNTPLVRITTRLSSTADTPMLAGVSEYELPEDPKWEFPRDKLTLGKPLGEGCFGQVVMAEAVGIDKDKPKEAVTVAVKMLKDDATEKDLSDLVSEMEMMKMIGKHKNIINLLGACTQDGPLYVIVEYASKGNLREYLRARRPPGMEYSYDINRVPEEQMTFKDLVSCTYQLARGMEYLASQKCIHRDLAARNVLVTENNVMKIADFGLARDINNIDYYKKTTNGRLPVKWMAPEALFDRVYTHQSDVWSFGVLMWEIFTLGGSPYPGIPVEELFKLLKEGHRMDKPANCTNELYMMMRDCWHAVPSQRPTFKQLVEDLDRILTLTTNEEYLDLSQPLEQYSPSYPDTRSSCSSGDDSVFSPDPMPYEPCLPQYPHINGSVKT
row,IC50,SMILES
1,< 100 nM,"C=C(C)C(=O)Nc1ccc(-c2c(C3=CC[C@H](C(=O)N4CCCCCC4)CC3)c3c(N)ncnc3n2C)cc1 (single isomer, unassigned) [Example 977]"
2,1000 to 100000 nM,"C=CC(=O)N1CC[C@@H](c2c(C3=CC[C@H](C(=O)N4CCCC4)CC3)c3c(N)ncnc3n2C)C1 (single isomer, unassigned) [Example 887]"
3,250 to 1000 nM,C#Cc1cc(C)c(-c2c(C3=CC[C@]4(CC3)Cc3ccc(C)nc3O4)c3c(C)ncnc3n2C)cn1 [Example 1396]
4,< 100 nM,C#Cc1ncc(-c2c(-c3ccc(Oc4nccc(C)n4)c(F)c3)c3c(N)ncnc3n2C(C)C)c(C)c1F [Example 1334]
5,1000 to 100000 nM,C=C(C)C(=O)Nc1ccc(-c2c(-c3ccc4[nH]nc(C)c4c3)c3c(N)ncnc3n2C)cc1 [Example 1290]
6,< 100 nM,C#Cc1c(F)cc(-c2c(-c3ccc(Oc4nccc(C)n4)cc3)c3c(N)ncnc3n2C)cc1F [Example 1177]
7,250 to 1000 nM,C=C(C)C(=O)Nc1ccc(-c2c(-c3ccc(C(=O)N[C@H]4C[C@H](F)C4)c(OC4CC4)c3)c3c(N)ncnc3n2C)cc1 [Example 978]
8,1000 to 100000 nM,C=C(C)C(=O)Nc1ccc(-c2c(-c3ccc(Oc4nccc(C)n4)cc3)c3c(N)ncnc3n2C)c(Cl)c1F [Example 1089]
9,< 100 nM,C=C(C)C(=O)Nc1cc(C)c(-c2c(C3=CC[C@H](C(=O)N4CCCC4)CC3)c3c(N)ncnc3n2C)c(F)c1 [Example 1482]
10,250 to 1000 nM,"C=C(C)C(=O)Nc1ccc(-c2c(C3=CC[C@@H](C(=O)N4CCCCCC4)CC3)c3c(N)ncnc3n2C)cc1 (single isomer, unassigned) [Example 979]"
11,1000 to 100000 nM,C=C(C)C(=O)Nc1ccc(-c2c(-c3ccc(Oc4nccc(C)n4)cc3)c3c(C)ncnc3n2C)c(C)c1 [Example 1125]
12,250 to 1000 nM,C=CC(=O)N(C)C1CCC(c2c(-c3ccc(Oc4cccc(C)n4)cc3)c3c(N)ncnc3n2C)C1 (stereo not drawn) [Example 816]

# The next lines start with the molecule.
row,SMILES,IC50
1,C=CC(=O)NC(C)(C)c1ccc(-c2c(-c3ccc(Oc4nccc(C)n4)cc3)c3c(N)ncnc3n2C)cc1 [Example 943],250 to 1000 nM
2,C#Cc1nc2cc(-c3c(-c4ccc(Oc5nccc(C)n5)c(F)c4)c4c(N)ncnc4n3C)ccc2n1C [Example 1359],< 100 nM
3,C=C(C)C(=O)Nc1ccc(-c2c(C3=CC[C@@H](C(=O)N4CCCC4)C[C@@H]3C)c3c(N)ncnc3n2C)cc1 [Example 937],1000 to 100000 nM
4,"C#Cc1cc(C)c(-c2c(C3=CC[C@H](C(=O)N4CCC[C@H]4C#N)CC3)c3c(C)ncnc3n2C)c(C)n1 (atropisomer, axis not shown) [Example 1463]",100 to 250 nM
5,C=C(C)C(=O)Nc1ccc(-c2c(-c3ccc(C(=O)NC4CCC4)c(OC)c3)c3c(N)ncnc3n2C)cc1 [Example 911],< 100 nM
6,"C=C(C)C(=O)Nc1ccc(-c2c(C3=CC[C@H](C(=O)N4CCc5ccccc54)CC3)c3c(N)ncnc3n2C)cc1 (single isomer, unassigned) [Example 986]",250 to 1000 nM
7,"C=C(C)C(=O)Nc1ccc(-c2c(C3=CC[C@H](C(=O)N4CCCC4)C[C@H]3C)c3c(N)ncnc3n2C)cc1 (single isomer, unassigned) [Example 938]",1000 to 100000 nM
8,COC(=O)/C=C/CNc1ccc(-c2c(-c3ccc(Oc4nccc(C)n4)c(F)c3)c3c(N)ncnc3n2C)cc1 [Example 1265],< 100 nM
9,C=C(C)C(=O)Nc1ccc(-c2cn3ncnc(N)c3c2-c2ccc(C(=O)N3CC4CC3C4)cc2)cc1 [Example 840],< 100 nM
10,C=C(C)C(=O)Nc1ccc(-c2c(-c3ccc(-c4ccccc4O)nc3)c3c(N)ncnc3n2C)cc1 [Example 1371],1000 to 100000 nM
11,C#Cc1ccc(-c2c(-c3ccc(Oc4nccc(C)n4)c(F)c3)c3cncnc3n2C)c(C)n1 [Example 1183],< 100 nM
12,C=CC(=O)Nc1ccc(-c2c(-c3c[nH]c4ccccc34)c3c(N)ncnc3n2C)cc1 [Example 1157],250 to 1000 nM
13,"C=CC(=O)N[C@H]1CCc2cc(-c3c(-c4ccc(Oc5nccc(C)n5)cc4)c4c(N)ncnc4n3C)ccc21 (single isomer, unassigned) [Example 929]",250 to 1000 nM
14,"Cc1ccnc(Oc2ccc(-c3c(-c4ccc(OC[C@H]5CO5)cc4)n(C)c4ncnc(N)c34)cc2)n1 (single isomer, unassigned) [Example 917]",100 to 250 nM
15,CC1=CCCN(c2ccc(-c3c(-c4ccc(Oc5nccc(C)n5)cc4)c4c(N)ncnc4n3C)cc2)C1=O [Example 1090],< 100 nM
